Drawing on the kinase profiling compilation of Christmann-Franck et al. (2016), this text covers Ki for 3 compounds.

Assay [1] has as its target SGK1 (human) (UniProt O00141). Put plainly: Flashplate.
Assay [2] deals with PLK3 (human) (UniProt Q9H4B4). Kind of assay: Flashplate.
In assay [3] the target is DYRK1A (human) (UniProt Q13627). Kind of assay: Flashplate.
The target of assay [4] is CDK5 (human) (UniProt Q00535). Put plainly: Flashplate.
Assay [5] has as its target CHEK2 (human) (UniProt O96017). Put plainly: Flashplate.
The target in assay [6] is MARK3 (human) (UniProt P27448). Kind of assay: Flashplate.
The target in assay [7] is KDR (human) (UniProt P35968). Kind of assay: HTRF.
KDR (human), sequence (P35968 whole entry, looked up): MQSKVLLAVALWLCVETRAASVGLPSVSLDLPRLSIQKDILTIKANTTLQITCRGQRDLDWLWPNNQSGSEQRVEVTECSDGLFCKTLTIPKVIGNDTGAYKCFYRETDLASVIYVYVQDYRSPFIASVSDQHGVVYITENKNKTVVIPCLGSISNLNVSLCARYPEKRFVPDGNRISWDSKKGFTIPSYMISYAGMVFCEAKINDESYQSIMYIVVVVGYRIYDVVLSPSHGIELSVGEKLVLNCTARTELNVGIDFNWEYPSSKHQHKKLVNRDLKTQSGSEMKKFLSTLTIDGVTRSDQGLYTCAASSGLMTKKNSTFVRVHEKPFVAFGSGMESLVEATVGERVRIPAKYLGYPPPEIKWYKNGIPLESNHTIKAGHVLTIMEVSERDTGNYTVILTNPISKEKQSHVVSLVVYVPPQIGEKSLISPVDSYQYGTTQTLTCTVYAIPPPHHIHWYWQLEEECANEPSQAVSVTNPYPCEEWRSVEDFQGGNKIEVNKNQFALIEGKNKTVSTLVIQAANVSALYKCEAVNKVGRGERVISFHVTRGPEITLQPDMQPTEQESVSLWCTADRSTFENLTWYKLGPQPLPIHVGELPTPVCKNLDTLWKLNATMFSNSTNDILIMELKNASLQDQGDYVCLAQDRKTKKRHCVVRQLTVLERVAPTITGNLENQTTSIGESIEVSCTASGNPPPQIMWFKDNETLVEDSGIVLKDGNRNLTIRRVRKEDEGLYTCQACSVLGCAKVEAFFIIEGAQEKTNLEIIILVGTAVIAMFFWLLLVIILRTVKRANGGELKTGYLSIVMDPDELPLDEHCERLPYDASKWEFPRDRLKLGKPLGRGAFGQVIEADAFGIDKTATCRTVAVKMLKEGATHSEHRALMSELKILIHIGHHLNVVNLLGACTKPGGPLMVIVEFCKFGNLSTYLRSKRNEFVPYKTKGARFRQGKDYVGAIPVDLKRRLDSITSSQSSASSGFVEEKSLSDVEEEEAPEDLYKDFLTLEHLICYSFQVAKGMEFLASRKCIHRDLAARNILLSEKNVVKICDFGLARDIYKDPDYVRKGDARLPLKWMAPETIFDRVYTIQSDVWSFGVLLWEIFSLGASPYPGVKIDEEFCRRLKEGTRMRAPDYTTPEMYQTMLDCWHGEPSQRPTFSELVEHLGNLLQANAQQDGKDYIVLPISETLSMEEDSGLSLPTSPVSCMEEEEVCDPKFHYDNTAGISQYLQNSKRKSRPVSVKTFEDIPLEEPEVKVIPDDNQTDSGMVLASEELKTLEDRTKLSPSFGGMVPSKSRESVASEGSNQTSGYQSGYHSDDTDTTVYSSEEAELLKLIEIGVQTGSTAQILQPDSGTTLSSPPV

SGK1 (human), sequence (O00141 whole entry, looked up): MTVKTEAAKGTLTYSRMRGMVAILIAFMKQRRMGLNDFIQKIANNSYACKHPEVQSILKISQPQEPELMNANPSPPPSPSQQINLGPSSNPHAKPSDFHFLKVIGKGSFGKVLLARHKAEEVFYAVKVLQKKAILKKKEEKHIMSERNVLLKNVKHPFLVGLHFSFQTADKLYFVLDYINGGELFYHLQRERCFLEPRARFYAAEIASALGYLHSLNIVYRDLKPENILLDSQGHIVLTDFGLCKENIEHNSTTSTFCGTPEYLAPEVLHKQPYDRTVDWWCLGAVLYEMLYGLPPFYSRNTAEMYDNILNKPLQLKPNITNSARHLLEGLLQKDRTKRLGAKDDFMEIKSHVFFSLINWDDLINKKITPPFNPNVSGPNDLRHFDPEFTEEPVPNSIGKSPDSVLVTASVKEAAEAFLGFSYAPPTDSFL
CHEK2 (human), sequence (O96017 whole entry, looked up): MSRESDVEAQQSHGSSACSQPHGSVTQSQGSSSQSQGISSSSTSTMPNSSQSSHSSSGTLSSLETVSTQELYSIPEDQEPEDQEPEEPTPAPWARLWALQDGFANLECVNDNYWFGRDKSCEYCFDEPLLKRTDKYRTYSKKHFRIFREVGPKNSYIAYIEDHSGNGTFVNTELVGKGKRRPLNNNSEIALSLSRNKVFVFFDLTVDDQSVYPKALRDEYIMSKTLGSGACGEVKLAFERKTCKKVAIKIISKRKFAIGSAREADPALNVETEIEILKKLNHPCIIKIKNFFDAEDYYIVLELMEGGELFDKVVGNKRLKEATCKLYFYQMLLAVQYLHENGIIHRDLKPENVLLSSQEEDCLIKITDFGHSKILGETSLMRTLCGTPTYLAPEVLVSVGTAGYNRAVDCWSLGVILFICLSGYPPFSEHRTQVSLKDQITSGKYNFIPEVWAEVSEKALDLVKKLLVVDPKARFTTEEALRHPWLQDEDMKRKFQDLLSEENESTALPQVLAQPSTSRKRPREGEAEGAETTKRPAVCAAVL
PLK3 (human), sequence (Q9H4B4 whole entry, looked up): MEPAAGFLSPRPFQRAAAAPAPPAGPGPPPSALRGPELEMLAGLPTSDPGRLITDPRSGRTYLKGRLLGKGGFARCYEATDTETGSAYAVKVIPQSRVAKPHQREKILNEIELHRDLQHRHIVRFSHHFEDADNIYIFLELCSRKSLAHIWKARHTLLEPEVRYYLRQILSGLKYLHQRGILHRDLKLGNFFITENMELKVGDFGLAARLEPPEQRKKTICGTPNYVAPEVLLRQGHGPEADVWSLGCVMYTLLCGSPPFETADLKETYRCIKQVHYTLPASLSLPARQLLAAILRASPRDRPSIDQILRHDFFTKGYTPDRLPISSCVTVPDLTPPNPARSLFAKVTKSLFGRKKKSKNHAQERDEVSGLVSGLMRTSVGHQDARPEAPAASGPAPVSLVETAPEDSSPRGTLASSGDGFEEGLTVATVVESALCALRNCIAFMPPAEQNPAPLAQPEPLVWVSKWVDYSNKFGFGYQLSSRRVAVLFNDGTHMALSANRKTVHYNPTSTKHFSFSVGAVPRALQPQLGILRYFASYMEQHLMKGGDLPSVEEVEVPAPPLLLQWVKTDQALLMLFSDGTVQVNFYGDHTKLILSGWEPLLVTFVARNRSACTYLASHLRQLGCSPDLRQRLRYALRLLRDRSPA
MARK3 (human), sequence (P27448 whole entry, looked up): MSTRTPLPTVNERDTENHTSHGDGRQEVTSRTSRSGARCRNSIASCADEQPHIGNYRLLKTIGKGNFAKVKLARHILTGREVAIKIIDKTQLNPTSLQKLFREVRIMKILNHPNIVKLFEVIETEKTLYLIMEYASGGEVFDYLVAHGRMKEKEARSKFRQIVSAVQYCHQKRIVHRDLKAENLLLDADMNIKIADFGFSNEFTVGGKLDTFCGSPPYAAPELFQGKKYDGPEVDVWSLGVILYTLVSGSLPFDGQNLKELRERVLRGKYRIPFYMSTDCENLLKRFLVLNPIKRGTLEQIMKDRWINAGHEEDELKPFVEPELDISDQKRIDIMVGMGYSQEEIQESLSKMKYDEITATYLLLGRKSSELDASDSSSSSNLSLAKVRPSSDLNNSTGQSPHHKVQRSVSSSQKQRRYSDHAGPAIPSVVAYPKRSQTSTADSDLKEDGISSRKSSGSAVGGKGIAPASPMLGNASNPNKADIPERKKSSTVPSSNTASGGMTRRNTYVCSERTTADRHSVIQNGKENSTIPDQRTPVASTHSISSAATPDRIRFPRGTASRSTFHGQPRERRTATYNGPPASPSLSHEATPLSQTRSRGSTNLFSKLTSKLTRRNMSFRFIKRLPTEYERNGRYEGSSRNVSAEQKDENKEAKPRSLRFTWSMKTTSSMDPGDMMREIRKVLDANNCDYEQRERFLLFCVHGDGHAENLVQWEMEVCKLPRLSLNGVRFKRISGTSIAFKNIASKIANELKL
CDK5 (human), sequence (Q00535 whole entry, looked up): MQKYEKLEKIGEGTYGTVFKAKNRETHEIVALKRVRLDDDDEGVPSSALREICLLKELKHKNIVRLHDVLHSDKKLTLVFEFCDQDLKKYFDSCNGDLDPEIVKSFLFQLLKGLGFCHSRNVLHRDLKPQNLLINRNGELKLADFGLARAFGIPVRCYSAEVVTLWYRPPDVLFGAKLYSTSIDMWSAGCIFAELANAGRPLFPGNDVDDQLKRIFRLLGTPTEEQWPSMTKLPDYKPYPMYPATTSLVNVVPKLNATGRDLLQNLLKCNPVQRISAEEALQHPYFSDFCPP

Consider `COc1cc2ncn(-c3cc(OCc4ccccc4C(F)(F)F)c(C(N)=O)s3)c2cc1OC`, for which the Ki was more than 10 µM in assay [1] and 0.00794 µM in assay [2].

`O=C(O)c1ccccc1Nc1ncnc(Nc2ccc3cn[nH]c3c2)n1`: the Ki in assay [3] and in assay [4] was 0.251 µM throughout.

As for `CCn1c(=O)/c(=C\Nc2ccccc2)s/c1=C(/C#N)C(=O)O`, the Ki in assay [5], in assay [1], in assay [6] and in assay [7] was 3.98 µM throughout.
